ChEMBL document CHEMBL1201862, “PubChem BioAssay data set” (2004)
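Test compounds were applied to cells in 96-well plates for 48 hours at 5 doses. GI50 marks 50% less growth.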 The source made the active and inactive calls. Rule as the data show it: active = GI50 up to about 1.1 µM and inactive = higher. Peptide text beside a SMILES is read from it. * marks the point of attachment. Cbz = O=C(OCc1ccccc1)*; Boc = CC(C)(C)OC(=O)*; OBn = c1ccc(CO*)cc1

How the values were obtained:
Experiment in all cases: NCI-60 cell line screen, 48 h
SK-MEL-2 = system: SK-MEL-2
UACC-257 = system: UACC-257
RXF 393 = system: RXF 393
OVCAR-5 = system: OVCAR-5
HT-29 = system: HT-29
MDA-MB-231 = system: MDA-MB-231
SNB-19 = system: SNB-19
HOP-62 = system: HOP-62
NCI-H226 = system: NCI-H226
COLO 205 = system: COLO 205
BT-549 = system: BT-549
A549 = system: A549
SK-MEL-5 = system: SK-MEL-5
EKVX = system: EKVX
SW-620 = system: SW-620
MDA-MB-435 = system: MDA-MB-435
NCI-H460 = system: NCI-H460
PC-3 = system: PC-3
U-251 = system: U-251
HCC 2998 = system: HCC 2998

Structure (SMILES) | GI50 (SK-MEL-2) | GI50 (UACC-257) | GI50 (RXF 393) | GI50 (OVCAR-5) | GI50 (HT-29) | GI50 (MDA-MB-231) | GI50 (SNB-19) | GI50 (HOP-62) | GI50 (NCI-H226) | GI50 (COLO 205) | GI50 (BT-549) | GI50 (A549) | GI50 (SK-MEL-5) | GI50 (EKVX) | GI50 (SW-620) | GI50 (MDA-MB-435) | GI50 (NCI-H460) | GI50 (PC-3) | GI50 (U-251) | GI50 (HCC 2998)
NC(=O)Cc1ncn(-c2ccccc2)n1 | > 100 µM (inactive) | > 100 µM (inactive) | > 100 µM (inactive) | > 100 µM (inactive) | > 100 µM (inactive) | > 100 µM (inactive) | > 100 µM (inactive) | > 100 µM (inactive) | > 100 µM (inactive) | > 100 µM (inactive) | > 100 µM (inactive) | > 100 µM (inactive) | > 100 µM (inactive) | > 100 µM (inactive) | > 100 µM (inactive) | > 100 µM (inactive) |  |  |  | 
CN(C(=O)Cc1cc(Cl)c(Cl)cc1N=C=S)[C@H]1CCCC[C@@H]1N1CCCC1 | 15.3 µM (inactive) | 14.6 µM (inactive) | 4.45 µM (inactive) | 16.9 µM (inactive) | 5.94 µM (inactive) | 14.3 µM (inactive) | 13.9 µM (inactive) | 14.2 µM (inactive) |  | 9.73 µM (inactive) | 15.1 µM (inactive) | 15.4 µM (inactive) | 14 µM (inactive) | 17.3 µM (inactive) | 5.47 µM (inactive) | 6.49 µM (inactive) | 7.36 µM (inactive) | 13.5 µM (inactive) | 14.9 µM (inactive) | 
N=C(N)n1nc2c(c1O)CCCC2 | > 100 µM (inactive) | > 100 µM (inactive) | > 100 µM (inactive) | > 100 µM (inactive) | > 100 µM (inactive) | > 100 µM (inactive) | > 100 µM (inactive) | > 100 µM (inactive) | > 100 µM (inactive) | > 100 µM (inactive) |  | > 100 µM (inactive) | > 100 µM (inactive) | > 100 µM (inactive) | > 100 µM (inactive) | > 100 µM (inactive) | > 100 µM (inactive) | > 100 µM (inactive) | > 100 µM (inactive) | > 100 µM (inactive)
CC1(C)N=C(N)N=C(N)N1c1cccc(C(=O)Nc2ccc(S(=O)(=O)F)cc2)c1 | > 100 µM (inactive) | > 100 µM (inactive) | > 100 µM (inactive) | > 100 µM (inactive) | > 100 µM (inactive) | > 100 µM (inactive) | > 100 µM (inactive) | > 100 µM (inactive) | > 100 µM (inactive) | > 100 µM (inactive) | > 100 µM (inactive) | > 100 µM (inactive) | > 100 µM (inactive) | > 100 µM (inactive) | > 100 µM (inactive) | > 100 µM (inactive) | > 100 µM (inactive) | > 100 µM (inactive) | > 100 µM (inactive) | 
Cc1nc(O)c2ncn(CCO)c2n1 |  | > 100 µM (inactive) | > 100 µM (inactive) | > 100 µM (inactive) | > 100 µM (inactive) | > 100 µM (inactive) | > 100 µM (inactive) | > 100 µM (inactive) | > 100 µM (inactive) | > 100 µM (inactive) |  | > 100 µM (inactive) | > 100 µM (inactive) | > 100 µM (inactive) | > 100 µM (inactive) | > 100 µM (inactive) | > 100 µM (inactive) | > 100 µM (inactive) | > 100 µM (inactive) | > 100 µM (inactive)
Nc1c(F)c(F)c2c(c1F)N(CCCCCl)c1ccccc1S2 | > 100 µM (inactive) | > 100 µM (inactive) | > 100 µM (inactive) | > 100 µM (inactive) | > 100 µM (inactive) | > 100 µM (inactive) | > 100 µM (inactive) | > 100 µM (inactive) | > 100 µM (inactive) | > 100 µM (inactive) | > 100 µM (inactive) | > 100 µM (inactive) | > 100 µM (inactive) |  | > 100 µM (inactive) |  | > 100 µM (inactive) | > 100 µM (inactive) | > 100 µM (inactive) | > 100 µM (inactive)
C=CCN1CCC(OC(=O)C(O)(/C=C\CC)C2CCCC2)CC1 (stereo unspecified) | > 100 µM (inactive) | 0.525 µM (active) | > 100 µM (inactive) | > 100 µM (inactive) | > 100 µM (inactive) | > 100 µM (inactive) | > 100 µM (inactive) | > 100 µM (inactive) | > 100 µM (inactive) | > 100 µM (inactive) | > 100 µM (inactive) | > 100 µM (inactive) | > 100 µM (inactive) | > 100 µM (inactive) |  | > 100 µM (inactive) |  | > 100 µM (inactive) | > 100 µM (inactive) | 
CC(=O)NCCCCNCCCNC(C)=O |  | > 100 µM (inactive) | > 100 µM (inactive) | > 100 µM (inactive) | > 100 µM (inactive) | > 100 µM (inactive) | > 100 µM (inactive) |  | > 100 µM (inactive) | > 100 µM (inactive) | > 100 µM (inactive) | > 100 µM (inactive) | > 100 µM (inactive) | > 100 µM (inactive) | > 100 µM (inactive) | > 100 µM (inactive) | > 100 µM (inactive) |  | > 100 µM (inactive) | > 100 µM (inactive)
CC(=O)Nc1ccccc1NC1CC(C)N(c2ccccc2)N1C(C)=O (stereo unspecified) |  | > 10 µM (inactive) | > 10 µM (inactive) |  | > 10 µM (inactive) | > 10 µM (inactive) |  | > 10 µM (inactive) |  | > 10 µM (inactive) |  | > 10 µM (inactive) | > 10 µM (inactive) | > 10 µM (inactive) | > 10 µM (inactive) | > 10 µM (inactive) |  | > 10 µM (inactive) |  | > 10 µM (inactive)
COc1cc(C2c3cccc4cccc(c34)C3CCC(=O)N32)cc(O)c1O (stereo unspecified) | > 50 µM (inactive) | 24.7 µM (inactive) | > 50 µM (inactive) | > 50 µM (inactive) | 48.1 µM (inactive) |  | > 50 µM (inactive) | 47.1 µM (inactive) | > 50 µM (inactive) | > 50 µM (inactive) | > 50 µM (inactive) | 31.2 µM (inactive) |  | 26.7 µM (inactive) | 28.6 µM (inactive) | 19.2 µM (inactive) | 36.5 µM (inactive) | 34.4 µM (inactive) | 19 µM (inactive) | 
CCCCCCNCCc1c[nH]cn1 | > 100 µM (inactive) | > 100 µM (inactive) | > 100 µM (inactive) | > 100 µM (inactive) | > 100 µM (inactive) | > 100 µM (inactive) | > 100 µM (inactive) | > 100 µM (inactive) | > 100 µM (inactive) | > 100 µM (inactive) |  | > 100 µM (inactive) | > 100 µM (inactive) | > 100 µM (inactive) | > 100 µM (inactive) | > 100 µM (inactive) | > 100 µM (inactive) | > 100 µM (inactive) | > 100 µM (inactive) | > 100 µM (inactive)
Cc1onc(-c2c(F)cccc2Cl)c1C(=O)N[C@@H]1C(=O)N2[C@@H]1SC(C)(C)[C@@H]2C(=O)O | > 100 µM (inactive) | > 100 µM (inactive) | > 100 µM (inactive) | > 100 µM (inactive) | > 100 µM (inactive) | > 100 µM (inactive) | > 100 µM (inactive) | > 100 µM (inactive) | > 100 µM (inactive) | > 100 µM (inactive) | > 100 µM (inactive) | > 100 µM (inactive) | > 100 µM (inactive) | > 100 µM (inactive) | > 100 µM (inactive) | > 100 µM (inactive) | > 100 µM (inactive) | > 100 µM (inactive) | > 100 µM (inactive) | 
O=C(CN1CCCC1)Nc1ccc2sc3ccccc3c(=O)c2n1 | 21.1 µM (inactive) | > 10 µM (inactive) |  | 24.4 µM (inactive) | 34 µM (inactive) | 26.4 µM (inactive) | 32.7 µM (inactive) | 16.9 µM (inactive) |  | 14 µM (inactive) | 25.3 µM (inactive) | 16.6 µM (inactive) | 16.5 µM (inactive) | 32.7 µM (inactive) | 4.97 µM (inactive) | 14.7 µM (inactive) | 22 µM (inactive) | 14.7 µM (inactive) | 18.7 µM (inactive) | 13.9 µM (inactive)
COC(=O)C(CCCCNC(=O)OCc1ccccc1)NC(=O)C(CCC(=O)OCc1ccccc1)NC(=O)OC(C)(C)C (stereo unspecified) (Boc-Glu(OBn)-Lys(Cbz)-OMe; configuration not given here) |  |  | > 100 µM (inactive) | > 100 µM (inactive) | > 100 µM (inactive) | 73.6 µM (inactive) | 40.2 µM (inactive) | 15 µM (inactive) | > 100 µM (inactive) | > 100 µM (inactive) | > 100 µM (inactive) | > 100 µM (inactive) | > 100 µM (inactive) | > 100 µM (inactive) | > 100 µM (inactive) | > 100 µM (inactive) | > 10 µM (inactive) | > 100 µM (inactive) | > 100 µM (inactive) | 
COc1c(CC=C(C)C)c(O)c(C(CC(C)C)c2c(O)c(C(C)=O)c(O)c3c2OC(C(C)(C)O)C3)c(O)c1C(C)=O (stereo unspecified) [ACROFOLIONE A] |  | 3.2 µM (inactive) | 2.88 µM (inactive) | 5.38 µM (inactive) | 4.71 µM (inactive) |  | 7.33 µM (inactive) |  | 5.69 µM (inactive) | 4.46 µM (inactive) | 3.27 µM (inactive) | 7.96 µM (inactive) | 3.41 µM (inactive) | 4.51 µM (inactive) | 6.25 µM (inactive) | 4.86 µM (inactive) | 4.13 µM (inactive) |  |  | 4.46 µM (inactive)
O=C1CSC(=S)N1 [RHODANINE] | > 100 µM (inactive) | > 100 µM (inactive) |  | > 100 µM (inactive) |  | > 100 µM (inactive) | > 100 µM (inactive) | > 100 µM (inactive) | > 100 µM (inactive) | > 100 µM (inactive) |  | > 100 µM (inactive) | > 100 µM (inactive) | > 100 µM (inactive) | > 100 µM (inactive) |  | > 100 µM (inactive) | > 100 µM (inactive) | > 100 µM (inactive) | > 100 µM (inactive)
